Reference: ChEMBL document CHEMBL1152652, “Bioorganic synthesis of end-capped anti-HIV peptides by simultaneous cyanocysteine-mediated cleavages of recombinant proteins” (Bioorg Med Chem, 2009)
Where a SMILES comes first, the peptide text is derived from it. The star is where a group is joined. NH(2-oxoazepan-3S-yl) = O=C1NCCCC[C@@H]1N*; Aspartimide = O=C1C[C@H](N*)C(=O)N1; X1 = N=C1N[C@H](C(=O)*)CS1

Experiments:
[1] = tested on: Human immunodeficiency virus 1; assay: Antiviral activity against HIV1 NL4-3 infected in human HeLa cells assessed as inhibition of replication after 48 hrs by MAGI assay; type: functional, organism-based; conditions: Human immunodeficiency virus 1, NL4-3, HeLa
HeLa = assay: Cytotoxicity against human HeLa cells after 48 hrs up to 10 uM by MAGI assay; type: cell-based
Serum = assay: Metabolic stability in 50% mouse serum assessed as degradation after 24 hrs; type: ADME, cell-free

EC50 [1] [nM]	Activity (Serum)	Compound	Activity (HeLa)
0.48	Unstable	CC[C@H](C)[C@H](NC(=O)[C@H](CC(C)C)NC(=O)[C@H](CCC(=O)O)NC(=O)[C@H](CCC(=O)O)NC(=O)[C@@H](NC(=O)[C@H](CCCCN)NC(=O)[C@H](CCCCN)NC(=O)[C@@H](NC(=O)[C@H](Cc1ccc(O)cc1)NC(=O)[C@H](CCC(=O)O)NC(=O)[C@H](CCC(=O)O)NC(=O)[C@@H](NC(=O)[C@H](CCCCN)NC(=O)[C@H](CCCNC(=N)N)NC(=O)[C@H](CC(=O)O)NC(=O)[C@H](Cc1c[nH]c2ccccc12)NC(=O)[C@H](CCC(=O)O)NC(=O)[C@H](CCSC)NC(=O)[C@H](Cc1c[nH]c2ccccc12)NC(=O)[C@@H]1CSC(=N)N1)[C@@H](C)CC)[C@@H](C)O)[C@@H](C)CC)C(=O)N[C@@H](CCCCN)C(=O)N[C@@H](CCCCN)C(=O)N[C@@H](CO)C(=O)N[C@@H](CCC(N)=O)C(=O)N[C@@H](CCC(=O)O)C(=O)N[C@@H](CCC(N)=O)C(=O)N[C@@H](CCC(N)=O)C(=O)N[C@@H](CCC(=O)O)C(=O)N[C@@H](CCCCN)C(=O)N[C@@H](CC(N)=O)C(=O)N[C@@H](CCC(=O)O)C(=O)N[C@@H](CCCCN)C(=O)N[C@@H](CCC(=O)O)C(=O)N[C@@H](CC(C)C)C(=O)N[C@@H](CCCCN)C(=O)N[C@H]1CC(=O)NC1=O (X1-WMEWDRKIEEYTKKIEELIKKSQEQQEKNEKELK-Aspartimide)	Non-toxic
0.58	Stable	CC[C@H](C)[C@H](NC(=O)[C@H](CC(C)C)NC(=O)[C@H](CCC(=O)O)NC(=O)[C@H](CCC(=O)O)NC(=O)[C@@H](NC(=O)[C@H](CCCCN)NC(=O)[C@H](CCCCN)NC(=O)[C@@H](NC(=O)[C@H](Cc1ccc(O)cc1)NC(=O)[C@H](CCC(=O)O)NC(=O)[C@H](CCC(=O)O)NC(=O)[C@@H](NC(=O)[C@H](CCCCN)NC(=O)[C@H](CCCNC(=N)N)NC(=O)[C@H](CC(=O)O)NC(=O)[C@H](Cc1c[nH]c2ccccc12)NC(=O)[C@H](CCC(=O)O)NC(=O)[C@H](CCSC)NC(=O)[C@H](Cc1c[nH]c2ccccc12)NC(=O)[C@@H]1CSC(=N)N1)[C@@H](C)CC)[C@@H](C)O)[C@@H](C)CC)C(=O)N[C@@H](CCCCN)C(=O)N[C@@H](CCCCN)C(=O)N[C@@H](CO)C(=O)N[C@@H](CCC(N)=O)C(=O)N[C@@H](CCC(=O)O)C(=O)N[C@@H](CCC(N)=O)C(=O)N[C@@H](CCC(N)=O)C(=O)N[C@@H](CCC(=O)O)C(=O)N[C@@H](CCCCN)C(=O)N[C@@H](CC(N)=O)C(=O)N[C@@H](CCC(=O)O)C(=O)N[C@@H](CCCCN)C(=O)N[C@@H](CCC(=O)O)C(=O)N[C@@H](CC(C)C)C(=O)N[C@@H](CCCCN)C(=O)N[C@H]1CCCCNC1=O (X1-WMEWDRKIEEYTKKIEELIKKSQEQQEKNEKELK-{NH(2-oxoazepan-3S-yl)})	Non-toxic
0.68	–	H-WMEWDRKIEEYTKKIEELIKKSQEQQEKNEKELK-OH	–

Compound	EC50 [1] [nM]	Activity (Serum)	Activity (HeLa)
Ac-WMEWDRKIEEYTKKIEELIKKSQEQQEKNEKELK-NH2	0.6	–	–
